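Tested at 5 concentrations; 48 h exposure; 96-well plates; endpoints linearly interpolated, else capped at highest concentration. Here, GI50 denotes the concentration required for 50% inhibition of growth.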 Calls of active or inactive are those of the source. No stated cut-off is given here; in the data, active = GI50 up to about 1.1 µM and inactive = higher.
Key:
Assay in all cases: inhibition of tumour cell growth, NCI panel, 48 h
PC-3 = tested on: PC-3
SF-539 = tested on: SF-539
CAKI-1 = tested on: CAKI-1
NCI-H23 = tested on: NCI-H23
HOP-62 = tested on: HOP-62
UACC-257 = tested on: UACC-257
OVCAR-5 = tested on: OVCAR-5
NCI-H226 = tested on: NCI-H226
OVCAR-3 = tested on: OVCAR-3
HCT-15 = tested on: HCT-15
MDA-MB-435 = tested on: MDA-MB-435
OVCAR-4 = tested on: OVCAR-4
SF-268 = tested on: SF-268
ACHN = tested on: ACHN
SN12C = tested on: SN12C
SNB-19 = tested on: SNB-19
EKVX = tested on: EKVX
HCC 2998 = tested on: HCC 2998
MDA-N = tested on: MDA-N
SNB-75 = tested on: SNB-75

Row | Structure (SMILES) | GI50 (PC-3) | GI50 (SF-539) | GI50 (CAKI-1) | GI50 (NCI-H23) | GI50 (HOP-62) | GI50 (UACC-257) | GI50 (OVCAR-5) | GI50 (NCI-H226) | GI50 (OVCAR-3) | GI50 (HCT-15) [µM] | GI50 (MDA-MB-435) | GI50 (OVCAR-4) | GI50 (SF-268) | GI50 (ACHN) | GI50 (SN12C) | GI50 (SNB-19) | GI50 (EKVX) | GI50 (HCC 2998) | GI50 (MDA-N) | GI50 (SNB-75)
1 | CC1NC(C(=O)O)Cc2cc(O)c(O)cc21 (configuration not stated) | > 100 µM (inactive) | > 100 µM (inactive) | > 100 µM (inactive) | > 100 µM (inactive) | > 100 µM (inactive) | > 100 µM (inactive) | > 100 µM (inactive) | > 100 µM (inactive) | > 100 µM (inactive) | > 100 | > 100 µM (inactive) | > 100 µM (inactive) | > 100 µM (inactive) | > 100 µM (inactive) | > 100 µM (inactive) | > 100 µM (inactive) | > 100 µM (inactive) | > 100 µM (inactive) | > 100 µM (inactive) | –
2 | O=C(Nc1ccccc1)OCCN=C1c2ccccc2CCc2ccccc21 | 19.6 µM (inactive) | 18.2 µM (inactive) | 18.5 µM (inactive) | 55.2 µM (inactive) | 19.7 µM (inactive) | 23.1 µM (inactive) | 28.7 µM (inactive) | 29.4 µM (inactive) | 13.6 µM (inactive) | 15.7 | 22.6 µM (inactive) | 21.9 µM (inactive) | 25.6 µM (inactive) | 15.4 µM (inactive) | 17.3 µM (inactive) | 14.8 µM (inactive) | 33.2 µM (inactive) | 27.5 µM (inactive) | 19.6 µM (inactive) | 11.9 µM (inactive)
3 | Nc1nc(Nc2ccccc2)sc1C(=O)c1cccs1 | 15.9 µM (inactive) | 10.7 µM (inactive) | 14.4 µM (inactive) | 16.2 µM (inactive) | 22.3 µM (inactive) | 17.7 µM (inactive) | 11.7 µM (inactive) | 16.8 µM (inactive) | 3.94 µM (inactive) | 10.8 | 15 µM (inactive) | 15.5 µM (inactive) | 18.2 µM (inactive) | 16.8 µM (inactive) | 16 µM (inactive) | 16.6 µM (inactive) | 13.6 µM (inactive) | 17 µM (inactive) | 17.1 µM (inactive) | –
4 | c1ccc(Cc2nc(Cc3n[nH]c(Cc4ccccc4)n3)n[nH]2)cc1 | > 100 µM (inactive) | > 100 µM (inactive) | – | > 100 µM (inactive) | > 100 µM (inactive) | > 100 µM (inactive) | > 100 µM (inactive) | – | > 100 µM (inactive) | > 100 | > 100 µM (inactive) | > 100 µM (inactive) | > 100 µM (inactive) | > 100 µM (inactive) | > 100 µM (inactive) | > 100 µM (inactive) | > 100 µM (inactive) | > 100 µM (inactive) | > 100 µM (inactive) | > 100 µM (inactive)
5 | c1ccc(/N=C(\N2CCOCC2)N(CCN2CCOCC2)c2ccccc2)cc1 | > 100 µM (inactive) | > 100 µM (inactive) | > 100 µM (inactive) | > 100 µM (inactive) | > 100 µM (inactive) | > 100 µM (inactive) | – | > 100 µM (inactive) | > 100 µM (inactive) | > 100 | > 100 µM (inactive) | > 100 µM (inactive) | > 100 µM (inactive) | – | > 100 µM (inactive) | > 100 µM (inactive) | > 100 µM (inactive) | > 100 µM (inactive) | > 100 µM (inactive) | > 100 µM (inactive)
6 | CNc1ncnc2c1cnn2Cc1cn(CCCCO)nn1 | > 100 µM (inactive) | > 100 µM (inactive) | > 100 µM (inactive) | > 100 µM (inactive) | > 100 µM (inactive) | > 100 µM (inactive) | > 100 µM (inactive) | > 100 µM (inactive) | > 100 µM (inactive) | > 100 | > 100 µM (inactive) | > 100 µM (inactive) | > 100 µM (inactive) | > 100 µM (inactive) | > 100 µM (inactive) | > 100 µM (inactive) | > 100 µM (inactive) | > 100 µM (inactive) | > 100 µM (inactive) | –
7 | Cn1nc(Cc2ccc(Cl)cc2)n(N)c1=O | > 100 µM (inactive) | > 100 µM (inactive) | > 100 µM (inactive) | > 100 µM (inactive) | – | > 100 µM (inactive) | > 100 µM (inactive) | > 100 µM (inactive) | – | > 100 | > 100 µM (inactive) | – | > 100 µM (inactive) | > 100 µM (inactive) | > 100 µM (inactive) | > 100 µM (inactive) | – | > 100 µM (inactive) | > 100 µM (inactive) | > 100 µM (inactive)
8 | O=C(O)c1ccc(Nc2nc3cc(C(F)(F)F)ccc3nc2-c2ccccc2)cc1 | 18.5 µM (inactive) | 21.7 µM (inactive) | 23.3 µM (inactive) | 19 µM (inactive) | 17.2 µM (inactive) | 35.3 µM (inactive) | 45.6 µM (inactive) | 25 µM (inactive) | 15.2 µM (inactive) | 12.9 | 31.6 µM (inactive) | – | 48.8 µM (inactive) | 19.1 µM (inactive) | 26 µM (inactive) | 30.6 µM (inactive) | 11.3 µM (inactive) | 16.7 µM (inactive) | 30.6 µM (inactive) | 18.3 µM (inactive)
9 | Cc1cccc(/C(Br)=C2/OC(=O)c3ccccc32)c1 | > 100 µM (inactive) | > 100 µM (inactive) | > 100 µM (inactive) | > 100 µM (inactive) | > 100 µM (inactive) | > 100 µM (inactive) | > 100 µM (inactive) | – | > 100 µM (inactive) | > 100 | > 100 µM (inactive) | > 100 µM (inactive) | > 100 µM (inactive) | > 100 µM (inactive) | > 100 µM (inactive) | – | > 100 µM (inactive) | > 100 µM (inactive) | > 100 µM (inactive) | > 100 µM (inactive)
10 | COc1cccc2c1C(CO)N1C(C#N)C3CC(C(=O)O)C(C1C2)N3C (configuration not stated) | 0.331 µM (active) | 1.41 µM (inactive) | 1.29 µM (inactive) | 1.57 µM (inactive) | – | 1.66 µM (inactive) | 2.85 µM (inactive) | – | 1.23 µM (inactive) | 1.43 | 0.349 µM (active) | 4.91 µM (inactive) | 1.85 µM (inactive) | 3.36 µM (inactive) | 1.64 µM (inactive) | 2.62 µM (inactive) | 6.19 µM (inactive) | 0.405 µM (active) | 0.273 µM (active) | 1.6 µM (inactive)
11 | CSc1nc2c(c(=O)[nH]1)N=C(c1ccc([N+](=O)[O-])cc1)CC(c1ccccc1)N2 (configuration not stated) | 49.4 µM (inactive) | 29.2 µM (inactive) | 89.1 µM (inactive) | 41.3 µM (inactive) | > 100 µM (inactive) | 44.9 µM (inactive) | > 100 µM (inactive) | > 100 µM (inactive) | 55.6 µM (inactive) | – | 28.2 µM (inactive) | 28.7 µM (inactive) | – | 31.9 µM (inactive) | 54.8 µM (inactive) | > 100 µM (inactive) | 36.4 µM (inactive) | 22.5 µM (inactive) | 38.2 µM (inactive) | 22.7 µM (inactive)
12 | N#CCN1CCCN(CC#N)CCN(CC#N)CCCN(CC#N)CC1 | > 100 µM (inactive) | > 100 µM (inactive) | > 100 µM (inactive) | > 100 µM (inactive) | > 100 µM (inactive) | > 100 µM (inactive) | > 100 µM (inactive) | > 100 µM (inactive) | > 100 µM (inactive) | – | > 100 µM (inactive) | > 100 µM (inactive) | > 100 µM (inactive) | > 100 µM (inactive) | > 100 µM (inactive) | > 100 µM (inactive) | – | > 100 µM (inactive) | > 100 µM (inactive) | > 100 µM (inactive)
13 | CCOc1ccc2c(c1)c(=O)c1c(NCCN(CC)CC)ccc3nnn2c31 | 18.8 µM (inactive) | 9.08 µM (inactive) | 20.7 µM (inactive) | 14.9 µM (inactive) | > 31.4 µM (inactive) | > 41.6 µM (inactive) | > 36.1 µM (inactive) | 11.9 µM (inactive) | > 100 µM (inactive) | 16.9 | 16.9 µM (inactive) | 11.9 µM (inactive) | 21.5 µM (inactive) | 15.6 µM (inactive) | 9.82 µM (inactive) | > 79.8 µM (inactive) | 83.2 µM (inactive) | > 33.6 µM (inactive) | 17.5 µM (inactive) | –
14 | COc1ccc(CCN2CCc3c(C)c(C#N)c4nc5ccccc5n4c32)cc1OC | 25.9 µM (inactive) | 49.9 µM (inactive) | > 100 µM (inactive) | 45.3 µM (inactive) | 33.7 µM (inactive) | 33.2 µM (inactive) | > 100 µM (inactive) | 27.5 µM (inactive) | 27.2 µM (inactive) | 29 | 14.3 µM (inactive) | 26 µM (inactive) | 35.1 µM (inactive) | 64.6 µM (inactive) | 34.2 µM (inactive) | > 100 µM (inactive) | – | 40.7 µM (inactive) | 19.1 µM (inactive) | 24.8 µM (inactive)
15 | CCCCC/C(=N\c1[nH]cnc1C(N)=O)OCC | > 100 µM (inactive) | > 100 µM (inactive) | > 100 µM (inactive) | > 100 µM (inactive) | > 100 µM (inactive) | > 100 µM (inactive) | > 100 µM (inactive) | > 100 µM (inactive) | > 100 µM (inactive) | > 100 | > 100 µM (inactive) | > 100 µM (inactive) | > 100 µM (inactive) | > 100 µM (inactive) | > 100 µM (inactive) | > 100 µM (inactive) | 32.3 µM (inactive) | > 100 µM (inactive) | > 100 µM (inactive) | –

Reference: ChEMBL document CHEMBL1201862, “PubChem BioAssay data set” (2004)
